Laboratory results reported in PMC7849180 (Frontiers in Pharmacology, 2020).

How the values were obtained:
[1] = tested on: myeloproliferative neoplasm; assay: JAK2V617F transgenic mouse model; assay type: in vivo, JAK2V617F transgenic mice; conditions: 100 mg/kg daily oral gavage, 4 weeks
Procedure: Suzhou Zelgen Biopharmaceuticals Co., Ltd. Jaktinib Hydrochloride Tablets Chemical Drug Class 1 New Drug […]
cells at a concentration of 1 μM. […]
effectively affect the primary cells harboring the JAK2V617F mutation in patients with […]
In Vivo Pharmacodynamic Study of ZG0128 in Mouse Model of Myeloproliferative Neoplasm
Primary myelofibrosis (PMF) is characterized by the formation of bone marrow fibrous tissues (scar-like) caused by the abnormal proliferation of three types of cells (platelets, white blood cells, and red blood cells). At present, there is still no particularly effective treatment for these diseases. JAKV617F transgenic mice and JAK2V617F bone marrow transplanted mice can develop the pathological characteristics of myeloproliferative neoplasm, which can be used to effectively evaluate the efficacy of drugs used in the treatment of myeloproliferative neoplasms.
HCD-57-JAK2V617F cells were intravenously injected into NSG mice. Three weeks later, the mice were injected intraperitoneally with a single dose of 200 mg/kg of compound ZG0128, and euthanized 4 h after drug administration. The results of […]
The ability of compound ZG0128 and its positive control drug ZG0192 to inhibit the pathological characteristics of myeloproliferative tumors (MPNs) was evaluated in a JAK2V617F bone marrow transplanted mouse model. […]

[2] = Metabolic stability in liver microsomes; assay type: in vitro ADME, mouse
Procedure: The metabolic stability of ZG0128 (the dihydrochloride monohydrate of ZG0163) was evaluated using human, monkey, dog, rat, and mouse liver microsomes as the in vitro models. The percentages of residues for ZG0128 after incubating in human, monkey, dog, rat, and mouse liver microsomes for 60 minutes was 55.5%, 63.1%, 67.1%, 80.3%, and 79.0%, respectively. The CLint values of in vivo clearance were calculated to be 24.1, 21.6, 33.4, 10.7, 26.0 mL/min/kg, respectively. Thus its was speculated that ZG0128 was a medium clearance drug in humans, monkeys, and mice, a high clearance drug in dogs, and a low clearance drug in rats.
Using UPLC-UV/Q-TOF MS, the potential metabolites of ZG0128 in various liver microsomes (human, monkey, dog, rat and mouse liver microsomes) incubation systems were identified and the metabolic pathways of ZG0128 were speculated. The main metabolite of ZG0128 in above five types of liver microsomes were primary alcohol metabolite formed by morpholine ring-opening (M3). […]

[3] = rat, in vivo, po
From the text: Chemical Drug Class 1 New Drug
The study consisted of 4 groups, including the control group and dose groups of […]

[4] = tested on: Ba/F3-EpoR cell line; assay: Cell activity of Ba/F3-EpoR cell line; assay type: cell-based; conditions: read-out: IC50, inhibition of cell activity
From the text: Suzhou Zelgen Biopharmaceuticals Co., Ltd. Jaktinib Hydrochloride Tablets Chemical Drug Class 1 New Drug and ZG0178. However, the inhibitory effect on the activity of Ba/F3-EpoR cell line […]
respectively. Obviously, this selective inhibition is associated with the aberrant expression of JAK2 in Ba/F3-EpoR-JAK2V617F mutant cells, and the degree of ZG0163 inhibition on JAK-STAT signaling pathway in this cell line. […]
cells, and the effects of ZG0163 was similar to those of positive control compounds, […]
In Vitro Inhibitory Effect of ZG0128 on Cell Lines Transfected with Oncogenes and Primary Blood Cells in Patients with Polycythemia Vera
In vitro cell culture assay was used to determine whether compound ZG0128 […]
cell line harboring a JAK2V617F mutation, and 8 HCD-57 cell lines stably transfected with oncogenic mutations JAK2V617F, MPLW515L, KITD816V, NPM-ALK, FLT3-ITD, FLT3D835H, FLT3D835Y and KRasG12V, respectively. In addition, study the inhibitory effects of compound ZG0128 on the growth of hematopoietic progenitor cells in patients with polycythemia vera.
9 cell lines were similar to those of positive control drug ZG0192. At the sub-micromolar concentration, both compounds ZG0128 and ZG0192 were able to […]
the growth of HCD-57 cells transfected with oncogenic mutations JAK2V617F, […]
spectrum inhibitory effect on tyrosine kinases. […]

[5] = molecular target: IKKβ (Homo sapiens, UniProt O14920); assay: Phosphorylation of IκBα by IKKβ; assay type: biochemical
Chain of IKKβ (O14920 whole entry, species assumed): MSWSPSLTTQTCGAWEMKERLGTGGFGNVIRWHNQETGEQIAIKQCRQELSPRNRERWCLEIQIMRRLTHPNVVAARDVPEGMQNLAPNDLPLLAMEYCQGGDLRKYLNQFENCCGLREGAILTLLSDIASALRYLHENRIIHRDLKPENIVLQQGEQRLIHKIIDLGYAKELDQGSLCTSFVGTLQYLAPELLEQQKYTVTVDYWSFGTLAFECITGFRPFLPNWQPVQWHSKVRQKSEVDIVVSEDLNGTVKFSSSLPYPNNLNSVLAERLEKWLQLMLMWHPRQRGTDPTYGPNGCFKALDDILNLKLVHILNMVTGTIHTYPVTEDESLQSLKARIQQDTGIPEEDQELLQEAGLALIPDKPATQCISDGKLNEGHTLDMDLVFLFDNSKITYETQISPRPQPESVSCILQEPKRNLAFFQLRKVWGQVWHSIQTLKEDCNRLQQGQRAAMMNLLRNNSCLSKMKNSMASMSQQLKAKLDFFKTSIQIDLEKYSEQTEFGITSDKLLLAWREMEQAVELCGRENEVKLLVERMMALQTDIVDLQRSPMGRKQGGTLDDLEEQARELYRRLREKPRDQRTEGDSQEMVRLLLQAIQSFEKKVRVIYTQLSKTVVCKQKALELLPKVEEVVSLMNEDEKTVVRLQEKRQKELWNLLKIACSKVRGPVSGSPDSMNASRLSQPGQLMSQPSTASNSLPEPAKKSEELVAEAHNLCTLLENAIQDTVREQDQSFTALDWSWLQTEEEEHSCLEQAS

Compound | counts of three types of blood cells and spleen volume [1] | CLint of in vivo clearance [2] [mL/min/kg] | percentage of residue after 60 minutes [2] [%] | maximum tolerated dose (MTD) [3] [mg/kg] | IC50 [4] [µM] | effect on phosphorylation of IκBα by IKKβ [5]
Cl.Cl.O.[2H]C1([2H])COCC([2H])([2H])N1c1ccc(Nc2nccc(-c3ccc(C(=O)NCC#N)cc3)n2)cc1 [ZG0128, Jaktinib Dihydrochloride Monohydrate] | significant decrease | 26.0 | 79.0 | 732 | – | –
Jaktinib | – | – | – | – | 1.5 | no significant effects
